# Laboratory results as given in patent US20260097111A1, “ETHER LIPIDS FOR HYPERACTIVATION OF MAMMALIAN DENDRITIC CELLS” (priority 2022, published 2026).
# Entries after “also recorded” stand apart in the source; their conditions may differ.
# Key:
# human moDCs = assay: IL-6 secretion by human moDCs; format: cell-based; conditions: human moDCs, 41.25 μM lipid with R848, compared with R848 + vehicle; FIG. 16
# murine FLT3L-DCs = assay: Murine bone marrow-derived FLT3L-DCs hyperactivation; format: cell-based, mice; conditions: R848 alone vs R848 in combination with DGP; FIG. 4C
# Description: Murine bone marrow-derived FLT3L-DCs generation. Leg femur and tibia were removed from mice, cut with scissors, and flushed into sterile tubes. Bone marrow suspension was treated with ACK for 1 minute, then passed through a 40 um cell strainer. Cells were counted and resuspended in media consisting of complete IMDM containing 10% FBS, penicillin and streptomycin, and supplements of L-glutamine and sodium pyruvate (I10). […] For each experiment, 5 mice are used to collect BM and to generate DCs.
# Lipid preparation. […] Lipid stocks were then further diluted in PBS to treat cells.
# Murine bone marrow-derived FLT3L-DCs hyperactivation. BMDCs were harvested on day 8 post differentiation, washed with PBS, and re-plated in FLT3L-containing I10 at a concentration of 1×10^5 cells/mL. Cells were primed with or without 1 μg/mL R848 (final) then treated with or without a hyperactivating lipid (or vehicle control). Forty-eight hours post stimulation, supernatants were collected for cytokine measurement. Viability was measured using the CellTiter-Glo assay (Promega) which measures ATP content from cells. Fifty microliters of CellTiter-Glo reagent were added to 50 μL of cells. Luminescence was quantified on a SpectraMax m5e plate reader using an integration time of 500 milliseconds. Viability data were set relative to control conditions where cells were treated with R848. IL-1β and TNFα cytokine were measured using sandwich ELISAs (Invitrogen).
# FLT3L-DCs = assay: Migration of injected FLT3L-DCs to skin draining lymph nodes; format: in vivo, mice; conditions: DCs stimulated with R848 1 μg/mL and 41 uM lipid, injected SC, 24 hours; FIG. 5; listed as DGP
# Description: Murine bone marrow-derived FLT3L-DCs hyperactivation for migration assays. BMDCs were harvested on day 8 post differentiation, washed with PBS, and re-plated in FLT3L-containing I10 at a concentration of 1×10^6 cells/mL. For DC hyperactivation, 500 μl of R848 was added at a final concentration of 1 μg/mL, and 500 μl of lipids (DGPC (Compound 1), DGP (Compound 2), DHC (Compound 7) or DHMC (Compound 8) or 22:0 lyso PC) prepared in 4% KP407 was diluted to a final concentration of 41 uM. Cells were incubated for 24 hours at 37° C. on a tube rotator. Twenty-four hours post-stimulation, cells were washed with PBS and stained with CFSE (1:1000) for 30 min at 37° C. in the dark. DCs were then counted and 1.10×10^6 cells were injected subcutaneously (SC) in 100 ul per mouse. 24 hours post-injection, the skin draining lymph nodes (dLN) were dissected. A single cell suspension was prepared, and cells were stained in PBS with Live Dead Fixable dye (ThermoFisher) for 20 min at 4° C. Cells were then washed again and stained for 20 min at 4° C. in MACS buffer (PBS with 1% FCS and 2 mM EDTA) containing the following fluorescently conjugated antibodies: anti-CD11c and anti-I-A/I-E (MHC-II). […] Data were analyzed using FlowJo software (Tree Star). […]
# [1] = test system: myeloid cells in dLN and spleen; assay: Myeloid cells in dLN and spleen after SC injection (flow cytometry); format: in vivo, mice
# From the text: dLN Dissection and Dissociation. […] The dLN were then transported on ice to Corner Therapeutics labs. The dLN was then processed using a Miltenyi spleen dissociation kit according to manufacturer's protocol. In brief, the dLN from each mouse was transferred into the gentleMACS C Tube containing the enzyme mix. The dLN were then dissociated using the gentleMACS Program 37C_m_SDK_1. Cell suspensions were then collected and filtered through a 30 μm Pre-Separation Filter. Cells were counted using the Moxi automated counter, then resuspended in 400 ul of FACS buffer for cell staining.
# Spleen Dissection and Dissociation. […] The spleen samples were then transported on ice to Corner Therapeutics labs. Spleen samples were then processed a Miltenyi spleen dissociation kit according to manufacturer's protocol. In brief, each spleen was transferred into the gentleMACS C Tube containing the enzyme mix. The spleens were then dissociated using the gentleMACS program 37C_m_SDK_1. ACK lysis was performed for 2 min. Cell suspensions were then collected and filtered through a 30 μm Pre-Separation Filter. Cells were counted using the Moxi automated counter, then resuspended in 400 ul of FACS buffer for cell staining.
# Flow Cytometry. Single cell suspension from the draining lymph or spleen were resuspended in 100 μL PBS containing Live/Dead Violet (1:1000) and incubated for 20 min at 4° C. Cells were then washed and resuspend in 100 μL FACS buffer containing Fc block (1:100) for 10 min. For myeloid cell staining, cells were then resuspended in 100 μL of antibodies detailed in Table 13-1 to identify monocytes as CD11b^+ Ly6C^+F4/80^neg MHC^neglive cells, moDCs as CD11b^+ Ly6C^+F4/80^neg MHC^+ live cells, macrophages as F4/80^+ MHC^+CD24^neg live cells, and DCs as CD11c^+MHC-II^+ F4/80^neg live cells. Counter Bright counting beads were added before the acquisition of samples.
smiles,measurement,setting,value
"CCCCCCCCCCCCCCCCCCCCCCOC[C@@H](O)COP(=O)(O)O [Compound 2, 1-docosyl-sn-glycerol-3-phosphate]",IL-6 secretion,human moDCs,IL-6 was secreted at similar levels
same,TNFα secretion,murine FLT3L-DCs,comparable
same,DC migration from the skin to the dLN,FLT3L-DCs,significantly enhanced DC migration from the skin to the dLN; also recorded: migration activity was significantly higher than DGPC (Compound 1)
same,absolute number of monocytes in the dLN,"[1]; 4 hours post SC injection vs PBS, FIG. 50A",did not induce an increase in the absolute number of cells in the dLN at 4 hours
same,absolute number of moDCs in the dLN,"[1]; 4 hours post SC injection vs PBS, FIG. 50B",did not induce an increase in the absolute number of moDCs in the dLN
same,CD69 MFI on myeloid cells in the dLN,"[1]; 4 hours post SC injection vs PBS, FIG. 52A-D",did not induce CD69 upregulation on myeloid cells in the dLN
same,CD69 MFI on myeloid cells in the spleen,"[1]; 4 hours post SC injection vs PBS, FIG. 53A-D",did not induce the upregulation of CD69 on myeloid cells in the spleen
same,CCR7 MFI on DCs in the dLN and spleen,"[1]; 4 hours post SC injection, FIG. 54A-B",did not induce the upregulation of CCR7
same,monocytes in the spleen,"[1]; 48 hours post SC injection vs PBS, FIG. 51A",decreased the levels of monocytes in the spleen
same,abundance of macrophages and cDCs in the dLN,"[1]; 48 hours post SC injection, FIG. 50C-D",did not increase
